Reference: patent US8603493B2, “Carbosilane dendrimers, preparation method thereof and use of same” (Dendrico, S.L., priority 2005, dated 2013)

Experiments:
erythrocytes = assay: Visual examination of erythrocytes (hemagglutination); assay type: cell-based, human
Method: A visual examination was carried out to detect the presence/absence of hemagglutination and quantification of haemoglobin release (haemolysis test) by spectrophotometry. ClNH4 was excluded from the dendrimers of previous Example 38, as the result had been more toxic for lymphocytes, and the results were compared with those produced for a PAMAN type generation 4 dendrimer.
The erythrocytes were obtained after being separated from the PBMC using the same Ficoll gradient cited in the previous Example. They were diluted in PBS to be able to view them individually. The cells were resuspended in 500 μl of PBS and were seeded in a 24-well plate (300,000/well). As positive control, cells treated with 0.2% Triton X-100 were used. Negative control: PBS (blank). The erythrocytes were incubated with different dendrimer concentrations. The presence of hemagglutination, number of cells and release of haemoglobin by hour were evaluated by collecting 100 μl of supernatant and measuring absorbencies by spectrophotometry using a plate reader at a wavelength of 550 nm and 690 nm as reference.

PBMC = assay: Staining with Trypan Blue of PBMC treated with dendriplexes or dendrimers; settings: 72 hours, (+/−)=2/1, IM8 3.93 μM, IM16 1.99 μM, ClNH4 3.98 μM, Phe 1.96 μM, NN 3.94 μM, SF 0.68 μM, G4 100 μM, PPT 0.88 μM (0.34 μM with SF, 1 μM with G4), n = 100 cells per count
ODN PPT = assay: Stability of the dendriplexes in aqueous solution in accordance with time; assay type: physicochemical; settings: after 24 hours
Method: Different samples of dendriplexes were prepared in aqueous solution formed between the ODN PPT and dendrimers IM8, IM16 and NN at a 2/1 charge ratio according to Example 31 and electrophoresis was performed after different times since the preparation of the samples, specifically 0 hours, 6 hours and 24 hours. During those times, the dendriplexes were maintained in conditions which imitate the physiological conditions: 37° C., in 5% CO2 atmosphere. The results are shown in FIG. 5, wherein the gel of FIG. 5a corresponds to the sample of 0 hours, that of FIG. 5b to the samples after 6 hours and that of FIG. 5c to the samples after 24 hours. In the three cases, a, b and c, the samples appear in the lanes following this order: […]

[1] = tested on: peripheral blood mononuclear cells (PBMC); assay: Visual examination of PBMC incubated with dendrimers; assay type: cell-based, human; settings: for visual examination of PBMC: 48 hours
Method: The toxicity of dendrimers IM8, IM16, ClNH4, NN, Phe and the commercial controls SF (Superfect) and G4 were tested. Different quantities were taken of each one of them so that the final concentrations with which the cells were incubated were 1 μM, 5 μM, 10 μM, 20 μM and 100 μM.
The blood came from adult donors or the umbilical cord of health newborns. Said blood was diluted ½ with PBS and it was centrifuged in a Ficoll gradient. After said centrifugation, the PBMC halo was recovered and two subsequent washing-centrifuging cycles were carried out. The resulting PBMC were resuspended in complete culture medium with 10% FCS, antibiotics and glutamine.
100 μl of 10% complete medium of foetal calf serum, antibiotics and glutamine were added to a volume of 60 μl of RPMI with the corresponding dendrimer tested. 160 μl were then added to the cells seeded in 340 μl, completing a final volume of 500 μl. The cells were incubated in this way for 48 hours and then the effect of the incubation with the dendrimers was evaluated by its visual examination and by the evaluation of the mitochondrial activity.

ODN = assay: Complex formation between CBS and ODN (agarose gel electrophoresis); assay type: binding; settings: 3% agarose gel, RPMI, excess positive charge (+/−) 2/1 and higher
Source text: The oligonucleotidic sequences used were antisense sequences (complementary) directed against HIV RNA. The length varied from 15 to 28 bases, being of phosphorothioate nature. The specific ODN used and their sequences are shown below in Table 1.
Several of the ODN were used fluorescent at the 5′ end. This is indicated by adding the letter F to its notation. Thus, “GF” makes reference to the fluorescent anti-gag ODN at end 5′, whilst “RF” makes reference to the anti-Rev ODN fluorescent at end 5′.
Different agarose concentrations were used to show the migration of the ODN and the dendriplexes, bearing in mind the small size of the ODN used. Finally, a 3% agarose concentration in TAE 1× was chosen as the best. The migration of non-fluorescent ODNs was compared with fluorescent ones, both migrating at the same height but the latter increasing the signal perceived considerably. Using them, it thus avoided the isotopic labelling of the ODN. A double well was manufactured to prepare these gels, to permit load volumes of 60 μl, of which 50 μl was mixture volume of the samples in RPMI and 10 μl load buffer with glycerol. As size marker, a ladder of 100 base pairs was used (Gibco BRL®).
For the complex formations in all the tests performed, both on gels and on cells the ratio between the number of positive and negative charges in said complex was taken. As published by different authors in studies with PAMAM dendrimers, it is necessary that the complex formed has an excess positive charge to facilitate its binding to the cell membrane glycoproteins, negatively charged, thus starting the endocytosis process. Likewise, an excess of positive charge is added to ensure the formation of the dendrimer-DNA complex. Therefore, the complexes between the CBS dendrimers and the different nucleic acids were formed in excess number of positive charges (provided by the CBS) compared with negative charges (provided by the ODN). Nevertheless, different charge ratios were tested, making the calculations based in the number of dendrimer charges (fixed) and the number of negative charges of the ODN (also fixed). The 2/1 ratio of positive/negative charges was fixed as sufficient in all dendrimers to form the complexes with a total positive charge, although in some experiments a balance was provided of an equal number of negative charges as positive charges or excess negative charges.
In all the tests, a complex formation volume of 60 μl was used, using phenol red without RPMI serum as support medium.
Tests of complex formation were used with the dendrimers of the invention IM8, ClNH4, NN, Phe and IM16.
The synthesis process of the CBS used in this work begins from an initial nucleus of common structure, which is ended functionalizing in the periphery by the use of different functional groups, which are those which provide the positive charge to the dendrimer and determine the differences between themselves, the dendrimeric nucleus being of apolar nature. Since some of the bonds of the functional groups used to the dendrimeric nucleus could be unstable in aqueous solution, tests were performed to determine if the DNA retention in agarose gels and, therefore, the complex formation between the CBS and the DNA could be due to the total dendrimer structure being conserved or in contrast, the terminal functional groups came away from the moiety of the dendrimeric core which are responsible for the DNA retention. For this, gels were used in which complexes were formed between the ODNs and the integral CBS and those formed supposedly between the ODNs and the terminal functional groups with which the carbosilane skeleton had functionalized, in this case quaternized dimethylethanolamine. As has previously been commented, those positively charged molecules, which are bound to the dendrimer as terminal functional groups, are those which give the dendrimer its charge. As control, the mixtures of ODN-dendrimers, ODN-monomers and ODN alone were compared. […]

## CN(CCO[Si](C)(C)CCC[Si](C)(CCC[Si](CCC[Si](C)(CCC[Si](C)(C)OCCN(C)CC[N+](C)(C)C)CCC[Si](C)(C)OCCN(C)CC[N+](C)(C)C)(CCC[Si](C)(CCC[Si](C)(C)OCCN(C)CC[N+](C)(C)C)CCC[Si](C)(C)OCCN(C)CC[N+](C)(C)C)CCC[Si](C)(CCC[Si](C)(C)OCCN(C)CC[N+](C)(C)C)CCC[Si](C)(C)OCCN(C)CC[N+](C)(C)C)CCC[Si](C)(C)OCCN(C)CC[N+](C)(C)C)CC[N+](C)(C)C.[I-].[I-].[I-].[I-].[I-].[I-].[I-].[I-] [NN, 2G-[Si(O(CH2)2N(Me)(CH2)2NMe3^+I^−)]8]
erythrocytes
  biocompatibility profile, toxicity on lymphocytes and erythrocytes taken together: better biocompatibility profiles
  induction of hemagglutination / haemolysis: does not
  order of hemagglutination from greater to lesser: G4>Phe>IM16>IM8>NN
erythrocytes; 1 μM
  Visual examination of erythrocytes incubated with dendrimers: O.K
erythrocytes; 5 μM
  Visual examination of erythrocytes incubated with dendrimers: O.K
erythrocytes; 10 μM
  Visual examination of erythrocytes incubated with dendrimers: Ag+/−
erythrocytes; 20 μM
  Visual examination of erythrocytes incubated with dendrimers: No cells
PBMC
  TB+ (%), cells stained with Trypan Blue: 10.6%
ODN PPT
  ODN released from dendrimer: ~100%
[1]
  toxicity for the lymphocytes from the visual observation (comparison): least toxic
[1]; 1 μM
  visual examination of PBMC: O.K
[1]; 5 μM
  visual examination of PBMC: O.K
ODN
  complex formation with ODN (retention of DNA migration in gel): capable of forming complexes with the ODN
